Columns and labels:
[1] = biological target: TDP-43 peptide (amino acids 307-319) (Homo sapiens, UniProt Q13148); assay: TDP-43 thioflavin T assay; assay type: biochemical; conditions: ThT RFU at 15 hours; 100% = TDP-43 + DMSO
Experimental: The effect of compounds on fibril formation by TDP-43 peptide (amino acids 307-319) was screened using a thioflavin T (ThT) fluorescence assay in a 96-well plate format. The monomeric form of TDP-43 307-319 was stored in HFIP at −20° C. in 32 μL vials and then thawed on ice. After thawing a stock aliquot on ice, 16 μL of HFIP and 432 μL 100 mM ammonium acetate was added. This mix was pipetted three times. Three such prepared aliquots were combined to create a master mix. 400 μM of ThT stock was prepared by dissolving 31.8 mg ThT in 10 mL Milli-Q water to make […] stock. The 10 mM ThT stock was then diluted to 400 μM with Milli-Q water and stored at −20° C. until use. 20 μL aliquots of compounds were used as initial starting material. 98 μL of master mix was then added to each well of 96-well plate, and then 2 μL of compounds was added to each well testing a compound. The plate was spun at 4700×rpm to remove bubbles at 4° C., and then the plate measurements were collected. ThT fluorescence was measured through the bottom of the plate using 440- and 480-nm excitation and emission filters for 15 hours at 0.5-hour intervals. Each well was scanned at 5 points with a 1.25 mm distance between points. The relative fluorescence unit (RFU) at 15 hours was used to rank the percent of aggregation for all tested compounds.

[2] = biological target: T1, TDP-43 cytosolic aggregates (TDP-43-tGFP-U2OS cell line) (Homo sapiens, UniProt Q13148); assay: TDP-43 cytoplasmic aggregation assay; assay type: cell-based; conditions: 100 μM compound; TDP-43-tGFP-U2OS cells; lower = more potent
T1 construct: expressed in transfected cells; host or cells: U2OS (recombinant, IPTG-inducible TDP-43 expression)
T1 sequence (Q13148 whole entry): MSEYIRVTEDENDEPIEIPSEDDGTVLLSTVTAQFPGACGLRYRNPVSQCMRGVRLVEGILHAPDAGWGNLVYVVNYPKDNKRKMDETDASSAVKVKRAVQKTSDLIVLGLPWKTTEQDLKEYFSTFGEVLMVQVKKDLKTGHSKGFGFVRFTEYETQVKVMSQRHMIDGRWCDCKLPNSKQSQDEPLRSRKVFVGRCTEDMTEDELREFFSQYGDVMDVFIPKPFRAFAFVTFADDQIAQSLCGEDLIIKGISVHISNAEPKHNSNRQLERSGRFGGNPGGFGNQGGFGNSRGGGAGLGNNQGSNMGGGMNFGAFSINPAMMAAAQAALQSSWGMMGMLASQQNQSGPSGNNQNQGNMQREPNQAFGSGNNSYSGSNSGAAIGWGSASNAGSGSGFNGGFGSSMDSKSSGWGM
Experimental: Recombinant TDP-43-tGFP-U2OS cell line was thawed (2×10^6 cells per T75) and was maintained in DMEM-F12 supplemented with 10% FBS at 37° C. in a humidified 5% CO2 atmosphere. Cells were plated in 96-well plates with a density of 10,000 cells (+/−2000 cells) per well. Cells were incubated with the test compounds and isopropyl β-D-1-thiogalactopyranoside (IPTG) 1 mM to induce TDP43 expression for 24 hours. The assays were carried out in triplicate. Cells were treated with 125-250 μM of sodium arsenite for 120 min and TDP-43 punctae formation was quantified in both cell cytoplasm and cell nucleus, in living cells. The nuclei were stained using Hoechst (0.5 μg/ml) and the fluorescence was measured using a Cell Insight High-Content Bioimager from Thermo Fisher. To detect the Hoechst, the filters used were 380/10 and 460/10 nm for excitation and emission, respectively, and to detect the TDP-43 punctae, the filters were 488/20 and 520/20 nm, respectively. The images were obtained with an objective of 20×. Cell quantification was performed delimitating the region of interest of the nuclei and after quantification the average of each triplicate was performed. For granule quantification the spot detector application from Cell Software delimitated 2 regions of interest, the nuclei and cytosol. This software quantified the average number of granules per nuclei and the average number of granules per cytosol in each well.

[3] = biological target: T2, alpha-synuclein (Homo sapiens, UniProt P37840); assay: Alpha-synuclein thioflavin T assay; assay type: biochemical; conditions: 250 μM compound on pre-formed aggregates of 50 μM alpha-synuclein, 24 hours; 100% = alpha synuclein + DMSO
T2 construct: purchased Proteos RP-003
Experimental: Recombinant alpha-synuclein monomeric protein was procured from Proteos (catalog no. RP-003, 10 mg/ml or 700 μM concentration). Prior to aggregation, the protein was centrifuged at 10,000 rpm for 5 minutes to remove any pre-existing aggregates. The stock solution was then diluted to 50 μM concentration in filtered 1×PBS and allowed to aggregate with continuous shaking at 1000 rpm on a thermomixer for 96 hours at 37° C. After 96 hours, the ThT fluorescence was checked for the sample to confirm aggregate formation using ThT, a well-known amyloid marker dye. The ThT active aggregates were then used for high-throughput small molecule inhibitor screening. For screening small molecule disaggregators, 10 mM DMSO stock solutions of small molecules were diluted to 250 μM in the reaction mix containing 20 μM ThT and aggregates formed by 50 μM alpha-synuclein. As a positive/vehicle control, 100% DMSO stock was diluted to 2.5% to match the DMSO in the small molecule conditions. ThT fluorescence assay was performed for 24 hours with 3 replicates per sample in a 384 well plate (Corning low volume black/clear flat bottom) on a microplate reader (Molecular Devices SpectraMax iD5 or BioTek Agilent Synergy Neo2) using excitation wavelength of 440 nm and emission wavelength of 490 nm. The temperature was maintained at 37° C. and the plate was continuously shaken throughout the measurement. All data were plotted and analyzed in GraphPad Prism.

[4] = biological target: T3, Aβ 1-42 (Homo sapiens, UniProt P05067); assay: Aβ42 thioflavin T assay; assay type: biochemical; conditions: 50 μM compound, 5 μM Aβ 1-42, ThT RFU at 15 hours; 100% = Aβ + DMSO; read-out: Aβ42 % aggregation at 50 μM
T3 construct: The monomeric form of Aβ 1-42 (rPeptide, A1170-025) film; purchased rPeptide A1170-025
T3 sequence (P05067 672-713 limits assumed): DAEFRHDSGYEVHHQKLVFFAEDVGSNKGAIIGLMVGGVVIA
Experimental: The effect of compounds on fibril formation by Aβ 1-42 was screened using a thioflavin T (ThT) fluorescence assay in a 96-well plate format. The monomeric form of Aβ 1-42 (rPeptide, A1170-025) film was diluted with 10 mM NaOH to form a 1 mg/ml stock solution. This stock solution was then further diluted with cell culture grade water (Cytiva, SH30529.01) and 10×PBS (VWR, 97063-660) to a working concentration of 100 μM in 1×PBS on ice. Compounds were initially dissolved in 100% DMSO (MilliporeSigma, D2650) at room temperature to make a 10 mM stock and stored at −20° C. prior to the experiment. On the day of the experiment, the stock solution was diluted with 1×PBS to a concentration of 500 μM, containing 5% DMSO. The reaction mixture, containing 10 μM ThT […], 5 μM Aβ 1-42, and 1×PBS was prepared in 15 ml Falcon centrifuge tubes (Corning, 352070) and kept on ice during preparation. The reaction mixture was then dispensed into multiple wells of a 96-well half-area, low-binding polyethylene non-treated plate (Corning, 3880) with a clear bottom, at 90 μL per well. To each well, 10 μL of 500 μM compound stock was added, with three replicates per compound. To account for the presence of DMSO, 5% DMSO in 1×PBS was used as the vehicle control. The positive control consisted of 10 μM ThT, 5 μM Aβ 1-42, and 0.5% DMSO in 1×PBS, while the negative control consisted of 10 μM ThT and 0.5% DMSO in 1×PBS. The plates were sealed with polyester sealing tape (VWR, 89134-430) to prevent evaporation and then placed in a plate reader (Molecular Devices SpectraMax ID5) at 37° C. without agitation. ThT fluorescence was measured through the bottom of the plate using 440- and 480-nm excitation and emission filters for 15 hours at 0.5-hour intervals. Each well was scanned at 5 points with a 1.25 mm distance between points. The relative fluorescence unit (RFU) at 15 hours was used to rank the percent of aggregation for all tested compounds and controls.

% aggregation TDP-43 ThT at 50 μM TDP-43 [1] [%]	% remaining TDP-43 cytosolic aggregates after 100 μM compound addition [2] [%]	% alpha synuclein aggregation as measured on ThT [3] [%]	activity at 50 µM [4] [%]	SMILES
78.9	>99.9	82.8	> 99.9	CC(=O)Nc1ccc2c(c1)CCN(CCc1ccccc1)C2 [Compound 3, N-(2-Phenethyl-1,2,3,4-tetrahydroisoquinolin-6-yl) acetamide]
	59.1	>99.9	74.6	CNC(=O)c1ccc2c(c1)CCN(CCc1cccc(Cl)c1)C2 [Compound 4, 2-(3-chlorophenethyl)-N-methyl-1.2.3.4-tetrahydroisoquinoline-6-carboxamide]
73.1	93.7	>99.9	59.7	CC(=O)Nc1ccc2c(c1)CN(CCc1cccc(Cl)c1)CC2 [Compound 6, N-(2-(3-Chlorophenethyl)-1,2,3,4-tetrahydroisoquinolin-7-yl) acetamide]
43.5				CC(=O)Nc1ccc2c(c1)CN(CCc1ccc(O)c(Cl)c1)C2 [Compound 12, N-(2-(3-Chloro-4-hydroxyphenethyl)isoindolin-5-yl) acetamide]
48.8				CC(=O)Nc1ccc2c(c1)CN(CCc1ccc(O)c(C)c1)C2 [Compound 13, N-(2-(4-Hydroxy-3-methylphenethyl)isoindolin-5-yl) acetamide]
48.6				CCc1cc(CCN2Cc3ccc(NC(C)=O)cc3C2)ccc1O [Compound 14, N-(2-(3-Ethyl-4-hydroxyphenethyl)isoindolin-5-yl) acetamide]

SMILES	% aggregation TDP-43 ThT at 50 μM TDP-43 [1] [%]	% remaining TDP-43 cytosolic aggregates after 100 μM compound addition [2] [%]	% alpha synuclein aggregation as measured on ThT [3] [%]	activity at 50 µM [4] [%]
Clc1cccc(CCN2CCc3ccccc3C2)c1 [Compound 5, 2-(3-chlorophenethyl)-1,2,3,4-tetrahydroisoquinoline]	64.6	40.7	99	
CC(=O)N(C)c1ccc2c(c1)CN(CCc1ccc(O)c(Cl)c1)C2.Cl [Compound 15, N-(2-(3-Chloro-4-hydroxyphenethyl)isoindolin-5-yl)-N-methylacetamide hydrochloride]	47.2			
